Laboratory results from paper PMC8032624, “Prediction of dose-dependent in vivo acetylcholinesterase inhibition by profenofos in rats and humans using physiologically based kinetic (PBK) modeling-facilitated reverse dosimetry” (Archives of Toxicology, 2021).

Tests used:
[1] = tested on: AChE of human erythrocytes; details: freshly obtained human erythrocytes; ref Das and Jamil [2006]; read-out: IC50 AChE inhibition; cited from earlier work
[2] = tested on: brain AChE; details: rats, single exposure; ref JMPR [2007]; cited from earlier work
[3] = tested on: AChE; assay: PBK modeling-facilitated reverse dosimetry and BMD modelling of predicted AChE inhibition in rats; parameters: species or system rat
Description: In the present study, it was assumed that in vivo dose-dependent AChE inhibition (in blood) depends on the maximum concentration (Cmax) of profenofos reached in the blood. For adequate PBK modeling-facilitated reverse dosimetry, the active (unbound) concentration of a test chemical in the in vitro test system should be linked to the in vivo freely available chemical at the target site. This is important since it is assumed that it is the fraction unbound that causes the effect (AChE inhibition). In the in vitro incubations, a very low concentration of BSA (0.1 mg/mL) is present. Heilmair et al. ([2008]) reported that with such low BSA concentrations, the free concentration of chlorpyrifos oxon is not affected. Furthermore, Rosenfeld and Sultatos ([2006]) found no evidence of binding of paraoxon by BSA even at a higher concentration (1 mg/ml) during incubations. Based on these observations, no significant effect on the free fraction of profenofos in the in vitro AChE inhibition studies is expected, which corroborated with estimations on profenofos binding in the in vitro incubations with help of the online simcyp tool (https://www.certara.com/software/pbpk-modeling-and-simulation/).
By calculating with the PBK model, the external dose required to reach (as unbound Cmax) the concentrations applied in the in vitro test, each in vitro concentration was translated into an in vivo dose. In this way, the concentration–response curves for rat and human AChE inhibition were converted into in vivo dose–response curves for profenofos-induced AChE inhibition in rats and humans, respectively.
To evaluate the performance of the PBK modeling-facilitated reverse dosimetry approach to predict in vivo AChE inhibition, the predicted dose–response curve for rat AChE inhibition upon exposure to profenofos was compared with available in vivo data on AChE inhibition in rats (JMPR [2007]). […]

[4] = tested on: rat; details: oral administration, ref JMPR [2007]; cited from earlier work
[5] = biological target: T1, rat RBC AChE (Rattus norvegicus, UniProt P37136); assay: In vitro inhibition of rat erythrocyte (RBC) AChE; type: biochemical
T1 construct: contained 0.005 mg/ml erythrocyte ‘ghost’ membrane protein; tissue BioIVT; host or cells: rat blood; erythrocyte 'ghost' membranes (Sprague-Dawley rats)
T1 sequence (P37136 other isoform, or with tags, fused parts or gaps): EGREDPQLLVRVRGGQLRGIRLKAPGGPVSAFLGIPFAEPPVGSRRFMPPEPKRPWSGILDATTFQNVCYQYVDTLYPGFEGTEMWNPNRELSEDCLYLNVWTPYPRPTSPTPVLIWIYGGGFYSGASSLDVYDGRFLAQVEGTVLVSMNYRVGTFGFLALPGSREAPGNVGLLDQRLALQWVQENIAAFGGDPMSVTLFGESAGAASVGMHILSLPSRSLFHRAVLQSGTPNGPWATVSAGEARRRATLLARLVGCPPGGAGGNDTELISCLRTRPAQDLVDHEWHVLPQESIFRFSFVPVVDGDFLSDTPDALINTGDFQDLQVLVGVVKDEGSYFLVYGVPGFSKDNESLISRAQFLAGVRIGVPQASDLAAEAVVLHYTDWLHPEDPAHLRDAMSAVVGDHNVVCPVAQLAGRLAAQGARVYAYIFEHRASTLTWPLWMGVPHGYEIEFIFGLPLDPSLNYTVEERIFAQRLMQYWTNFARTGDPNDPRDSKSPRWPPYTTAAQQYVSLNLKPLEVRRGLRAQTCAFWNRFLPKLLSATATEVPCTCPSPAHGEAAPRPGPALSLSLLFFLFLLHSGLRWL
Description: To perform reverse dosimetry of in vitro AChE inhibition by profenofos, first the in vitro AChE activity in the absence or presence of increasing concentrations of profenofos was determined. For humans, commercially available recombinant AChE was used. For rats, no commercially available recombinant AChE was available, so rat AChE was obtained from rat blood as described below.
AChE activity was expressed as enzyme activity (percent of control). The concentration of profenofos that produced a 50% decrease in AChE activity (IC50) was determined from best‐fit plots of the mean (± SD) percentages of inhibition vs. the 10log logarithm of profenofos concentrations using GraphPad Prism 5, version 5.04 (San Diego, California, USA) equation: Y=100/(1+10^(X-LogIC50)).
Rat blood samples were processed according to a method reported by Larsen et al. ([2019]) with a few modifications to isolate the extrinsic membrane bound AChE. Briefly, the blood sample (2 ml) was centrifuged at 3000g for 15 min to separate plasma and cells. […] Aliquots of erythrocyte ‘ghost’ membrane preparations were used for protein measurement using the Pierce™ BCA Protein Assay Kit (Thermofisher) with BSA as standard for quantification (Lowry et al. [1951]), and for AChE activity assessment.
The effect of profenofos on rat AChE activity was assessed as described above for human recombinant AChE, with a few modifications. […]

For CCCSP(=O)(OCC)Oc1ccc(Br)cc1Cl (stereo not shown) [profenofos, O-(4-bromo-2-chlorophenyl) O-ethyl S-propyl phosphorothioate], the IC50 [1] is given as 350 nM, the “NOAEL for inhibition of brain AChE” value [2] is given as 100 mg/kg bw and the “JMPR NOAEL relative to BMDL10 from predicted rat dose-response data” value [3] is given as 200 fold. The “Predicted rat BMDL10 relative to EFSA ARfD” value [3] was ~ 100 fold, the “US EPA BMDL10 relative to BMDL10 from predicted rat dose-response data” value [3] was 4 times and the LD50 [4] was 358 to 1178 mg/kg. The IC50 [5] was 312 nM.
